This is an account of results in patent publication US10028956B2, “Methods of treating various cancers using an AXL/cMET inhibitor in combination with other agents” (Ignyta, Inc., priority 2013, dated 2018).

Assay [1] concerns the target T1, AXL (Homo sapiens, UniProt P30530).
T1 sequence (P30530 26-894): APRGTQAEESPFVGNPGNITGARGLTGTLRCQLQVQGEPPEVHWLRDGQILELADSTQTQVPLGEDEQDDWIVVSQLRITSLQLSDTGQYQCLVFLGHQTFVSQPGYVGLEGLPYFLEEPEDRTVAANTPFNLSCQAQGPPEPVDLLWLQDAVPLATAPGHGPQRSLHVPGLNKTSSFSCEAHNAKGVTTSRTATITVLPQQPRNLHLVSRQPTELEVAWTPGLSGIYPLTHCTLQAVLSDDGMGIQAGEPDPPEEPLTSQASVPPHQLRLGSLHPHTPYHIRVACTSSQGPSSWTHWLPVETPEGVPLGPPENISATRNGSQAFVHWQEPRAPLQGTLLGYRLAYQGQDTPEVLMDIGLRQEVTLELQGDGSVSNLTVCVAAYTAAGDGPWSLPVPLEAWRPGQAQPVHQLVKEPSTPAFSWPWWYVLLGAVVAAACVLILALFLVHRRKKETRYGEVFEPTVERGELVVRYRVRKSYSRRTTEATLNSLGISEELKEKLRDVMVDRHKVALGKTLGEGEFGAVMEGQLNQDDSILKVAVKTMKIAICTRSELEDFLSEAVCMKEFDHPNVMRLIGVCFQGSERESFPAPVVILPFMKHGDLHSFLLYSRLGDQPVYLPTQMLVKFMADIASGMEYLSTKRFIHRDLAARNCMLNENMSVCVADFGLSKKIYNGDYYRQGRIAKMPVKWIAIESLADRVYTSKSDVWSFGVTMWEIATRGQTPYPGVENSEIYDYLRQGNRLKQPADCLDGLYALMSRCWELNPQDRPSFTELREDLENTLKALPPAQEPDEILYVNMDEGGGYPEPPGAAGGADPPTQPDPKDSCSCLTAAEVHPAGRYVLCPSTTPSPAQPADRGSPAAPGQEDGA
Put plainly: AXL enzyme inhibition (recombinant enzyme). In kind it is biochemical.

The subject of assay [2] is NIH3T3/AXL tumor xenografts. Put plainly: Anti-tumor efficacy in NIH3T3/AXL tumor xenografts. In kind it is in vivo, mice. The following applies: 0.3, 1 or 10 mg/kg PO qd, all doses tested. The protocol:
The engineered NIH3T3/AXL cell line was generated as follows. The human AXL cDNA was subcloned into the pQCXIP vector and the sequences were confirmed by sequencing at Children's Hospital of Philadelphia. PT67 cells (5×10^5) in 4 mL DMEM+10% FBS were seeded in each well of 6-well plates (Cat^#353046, Becton Dickinson, Franklin Lakes, N.J.) and cultured at 37° C. in a humidified incubator with 5% CO2 overnight. The cells were transfected with 2 μg of pQCXIP-AXL with Lipofectamine™ 2000 (Cat#52887, Invitrogen, Carlsbad, Calif.) transfection reagent per the manufacturer's protocol. In brief, the DNA in 500 μL culture media was mixed with 500 μL media containing 20 μL Lipofectamine™ 2000 transfection reagent, and the mixture was incubated at room temperature for 20 minutes. […]
NIH3T3/AXL cells were collected and resuspended in DMEM medium at density of 5×10^7/mL. […] The mice were monitored and the tumor sizes were measured. […] The length (L) and width (W) of each tumor were measured with a vernier caliper and the mouse body weight was determined every two to three days. Tumor volumes were calculated with the formula of 0.5236*L*W*(L+W)/2. […] Plasma and tumor samples were obtained at 2 hours post final dose at each dose level, and the compound levels in plasma and tumor lysates were measured by LC-MS/MS.

The structures appear in SMILES notation.

By IC50 is commonly meant the concentration that inhibits the measured activity by half. As for `COc1cc2nccc(Oc3ccc(NC(=O)c4cn(C(C)C)c(=O)n(-c5ccc(F)cc5)c4=O)cc3F)c2cc1OC` [CEP-40783, 3-(4-Fluorophenyl)-1-isopropyl-2,4-dioxo-1,2,3,4-tetrahydropyrimidine-5-carboxylic acid [4-(6,7-dimethoxyquinolin-4-yloxy)-3-fluorophenyl]-amide], in assay [1], the half-maximal inhibitory concentration (IC50) worked out at 7 nM. Moreover, in assay [2], the “anti-tumor efficacy (tumor volume)” value is given as “complete tumor regressions”.
